Assay results published in patent US9029377B2, “Platelet-activating factor receptor antagonists” (Merck Sharp & Dohme Corp., priority 2009, dated 2015).

Target: PAFR (Homo sapiens, UniProt P25105)
Test: PAF Binding Assay (PAFR binding)

Sequence of PAFR (P25105 whole entry): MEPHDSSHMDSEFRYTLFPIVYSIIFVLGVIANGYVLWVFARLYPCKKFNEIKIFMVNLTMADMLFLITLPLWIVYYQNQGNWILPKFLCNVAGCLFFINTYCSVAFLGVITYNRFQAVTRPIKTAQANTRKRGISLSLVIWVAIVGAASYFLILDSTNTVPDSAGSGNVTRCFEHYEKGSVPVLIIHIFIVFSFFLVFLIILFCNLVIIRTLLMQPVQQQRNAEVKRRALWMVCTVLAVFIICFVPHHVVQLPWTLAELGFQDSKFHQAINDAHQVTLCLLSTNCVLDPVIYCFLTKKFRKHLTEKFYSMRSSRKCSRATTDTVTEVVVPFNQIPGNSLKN

`CCc1cc(-c2cc(C(F)(F)F)cc(C(F)(F)F)c2)ccc1S(=O)(=O)N[C@H]1CCC[C@@H](n2cnnc2)C1` [Compound 2Abo, 3-ethyl-N-[(1S,3R)-3-(4H-1,2,4-triazol-4-yl)cyclohexyl]-3′,5′-bis(trifluoromethyl)biphenyl-4-sulfonamide] and `CCc1cc(-c2ccc(OC(F)(F)F)c(F)c2)ccc1S(=O)(=O)N[C@H]1CCC[C@@H](n2cnnc2)C1` [Compound 2Aac, 3-ethyl-3′-fluoro-N-[(1S,3R)-3-(4H-1,2,4-triazol-4-yl)cyclohexyl]-4′-(trifluoromethoxy)biphenyl-4-sulfonamide] are the same in IC50: 13 nM for the first, 13 nM for the second.

`CCc1cc(-c2c(C)noc2C)ccc1S(=O)(=O)N[C@H]1CCC[C@@H](n2cnnc2)C1` [Compound 2Az, 4-(3,5-dimethylisoxazol-4-yl)-2-ethyl-N-[(1S,3R)-3-(4H-1,2,4-triazol-4-yl)cyclohexyl]benzenesulfonamide] and `CCc1cc(-c2cscn2)ccc1S(=O)(=O)N[C@H]1CCC[C@@H](n2cnnc2)C1` [Compound 2Aay, 2-ethyl-4-(1,3-thiazol-4-yl)-N-[(1S,3R)-3-(4H-1,2,4-triazol-4-yl)cyclohexyl]benzenesulfonamide] are within 1.5-fold of each other in IC50: 48 nM for the first, 69 nM for the second.

Going from `O=S(=O)(N[C@H]1CCC[C@@H](n2cnnc2)C1)c1cc(Cl)cc(Cl)c1` [2 Mh, 3,5-dichloro-N-[(1S,3R)-3-(4H-1,2,4-triazol-4-yl)cyclohexyl]benzenesulfonamide] to `O=S(=O)(N[C@H]1CCC[C@@H](n2cnnc2)C1)c1cc(F)cc(F)c1` [Compound 2Ma, 3,5-difluoro-N-[(1S,3R)-3-(4H-1,2,4-triazol-4-yl)cyclohexyl]benzenesulfonamide], the IC50 rises from 194 nM to 2900 nM (15-fold).

`CC(F)(F)c1nc(-c2ccc(S(=O)(=O)N[C@H]3CCC[C@@H](n4cnnc4)C3)c(C3CC3)c2)no1` [Compound 2Kc, 2-cyclopropyl-4-[5-(1,1-difluoroethyl)-1,2,4-oxadiazol-3-yl]-N-[(1S,3R)-3-(4H-1,2,4-triazol-4-yl)cyclohexyl]benzenesulfonamide] and `O=S(=O)(N[C@H]1CCC[C@@H](n2cnnc2)C1)c1cc(-c2noc(C3CC3)n2)cc(C(F)(F)F)c1` [Compound 3Ah, 3-(5-cyclopropyl-1,2,4-oxadiazol-3-yl)-N-[(1S,3R)-3-(4H-1,2,4-triazol-4-yl)cyclohexyl]-5-(trifluoromethyl)benzenesulfonamide] are within 1.5-fold of each other in IC50: 9.9 nM for the first, 7.8 nM for the second.

Going from `CCc1ccc(S(=O)(=O)N[C@H]2CCC[C@@H](n3cnnc3)C2)cc1-c1ccccc1` [Compound 2Mm, 6-ethyl-N-[(1S,3R)-3-(4H-1,2,4-triazol-4-yl)cyclohexyl]biphenyl-3-sulfonamide] to `O=S(=O)(N[C@H]1CCC[C@@H](n2cnnc2)C1)c1ccc(Oc2ccccc2)cc1` [Compound 2Mv, 4-phenoxy-N-[(1S,3R)-3-(4H-1,2,4-triazol-4-yl)cyclohexyl]benzenesulfonamide], the IC50 rises from 26 nM to 51 nM (2-fold).

Compared with `O=S(=O)(N[C@H]1CCC[C@@H](n2cnnc2)C1)c1cc(-c2ccn3ncnc3c2)cc(C(F)(F)F)c1` [Compound 3Aal, 3-[1,2,4]triazolo[1,5-a]pyridin-7-yl-N-[(1S,3R)-3-(4H-1,2,4-triazol-4-yl)cyclohexyl]-5-(trifluoromethyl)benzenesulfonamide], `O=S(=O)(N[C@H]1CCC[C@@H](n2cnnc2)C1)c1cc(-c2cccn3cnnc23)cc(C(F)(F)F)c1` [Compound 3d] is 14-fold lower in IC50: 42 nM for the first, 3.1 nM for the second. The second is the more potent here.

`CCc1cc(-c2ccc(OCC(F)(F)F)nc2)ccc1S(=O)(=O)N[C@@H]1C[C@H](n2cnnc2)CC(F)(F)C1` [Compound 2Cak, N-[(1R,5S)-3,3-difluoro-5-(4H-1,2,4-triazol-4-yl)cyclohexyl]-2-ethyl-4-[6-(2,2,2-trifluoroethoxy)pyridin-3-yl]benzenesulfonamide] and `O=S(=O)(N[C@@H]1C[C@H](n2cnnc2)CC(F)(F)C1)c1ccc(-c2ccc(OCC(F)(F)F)nc2)c(F)c1` [2 Gf, N-[(1R,5S)-3,3-difluoro-5-(4H-1,2,4-triazol-4-yl)cyclohexyl]-3-fluoro-4-[6-(2,2,2-trifluoroethoxy)pyridin-3-yl]benzenesulfonamide] are within 1.5-fold of each other in IC50: 3.1 nM for the first, 4.4 nM for the second.

Going from `O=S(=O)(N[C@H]1CCC[C@@H](n2cnnc2)C1)c1c(F)cc(-c2noc(C3CC3)n2)cc1C1CC1` [Compound 2Sa, 2-cyclopropyl-4-(5-cyclopropyl-1,2,4-oxadiazol-3-yl)-6-fluoro-N-[(1S,3R)-3-(4H-1,2,4-triazol-4-yl)cyclohexyl]benzenesulfonamide] to `O=S(=O)(N[C@H]1CCC[C@@H](n2cnnc2)C1)c1c(C2CC2)cc(-c2noc(C3CCC3)n2)cc1C1CC1` [Compound 2Rb, 4-(5-cyclobutyl-1,2,4-oxadiazol-3-yl)-2,6-dicyclopropyl-N-[(1S,3R)-3-(4H-1,2,4-triazol-4-yl)cyclohexyl]benzenesulfonamide], the IC50 falls from 8.6 nM to 0.1 nM (86-fold). The second is the more potent here.

First: Cc1nncn1[C@@H]1CCC[C@H](NS(=O)(=O)c2ccc(-c3ccc(OC(F)(F)F)cc3)c(F)c2)C1 [Compound 2Fa, 2-fluoro-N-[(1S,3R)-3-(3-methyl-4H-1,2,4-triazol-4-yl)cyclohexyl]-4′-(trifluoromethoxy)biphenyl-4-sulfonamide]
Second: Cc1nncn1[C@@H]1CCC[C@H](NS(=O)(=O)c2ccc(OCCCC(F)(F)F)cc2)C1 [Compound 2Nac, N-[(1S,3R)-3-(3-methyl-4H-1,2,4-triazol-4-yl)cyclohexyl]-4-(4,4,4-trifluorobutoxy)benzenesulfonamide]
The IC50 of the first is 24-fold lower: 0.2 nM for the first, 4.7 nM for the second. The first is the more potent here.

Compared with `Cc1nncn1[C@H]1C[C@@H](NS(=O)(=O)c2ccc(-c3noc(C4CC4)n3)cc2)CC(F)(F)C1` [Compound 2Ql, 4-(5-cyclopropyl-1,2,4-oxadiazol-3-yl)-N-[(1R,5S)-3,3-difluoro-5-(3-methyl-4H-1,2,4-triazol-4-yl)cyclohexyl]benzenesulfonamide], `CCCCOc1ccc(S(=O)(=O)N[C@H]2CCC[C@@H](n3cnnc3C)C2)cc1` [Compound 2Nw, 4-butoxy-N-[(1S,3R)-3-(3-methyl-4H-1,2,4-triazol-4-yl)cyclohexyl]benzenesulfonamide] is 2.9-fold lower in IC50: 8.2 nM for the first, 2.8 nM for the second.

First: O=S(=O)(N[C@H]1CCC[C@@H](n2cnnc2)C1)c1c(C2CC2)cc(-c2noc(C3CC(F)(F)C3)n2)cc1C1CC1 [Compound 2Rc, 2,6-dicyclopropyl-4-[5-(3,3-difluorocyclobutyl)-1,2,4-oxadiazol-3-yl]-N-[(1S,3R)-3-(4H-1,2,4-triazol-4-yl)cyclohexyl]benzenesulfonamide]
Second: Nc1cnc(-c2cc(C(F)(F)F)cc(S(=O)(=O)N[C@H]3CCC[C@@H](n4cnnc4)C3)c2)cn1 [Compound 3Aw, 3-(5-aminopyrazin-2-yl)-N-[(1S,3R)-3-(4H-1,2,4-triazol-4-yl)cyclohexyl]-5-(trifluoromethyl)benzenesulfonamide]
The IC50 of the first is 2.3-fold lower: 2.9 nM for the first, 6.6 nM for the second.

Compared with `CCc1cc(-c2cncc(OC)c2)ccc1S(=O)(=O)N[C@H]1CCC[C@@H](n2cnnc2)C1` [Compound 2Aan, 2-ethyl-4-(5-methoxypyridin-3-yl)-N-[(1S,3R)-3-(4H-1,2,4-triazol-4-yl)cyclohexyl]benzenesulfonamide], `CCc1cc(-c2cccnc2)ccc1S(=O)(=O)N[C@H]1CCC[C@@H](n2cnnc2)C1` [Compound 2Ao, 2-ethyl-4-pyridin-3-yl-N-[(1S,3R)-3-(4H-1,2,4-triazol-4-yl)cyclohexyl]benzenesulfonamide] is 2.2-fold higher in IC50: 71 nM for the first, 159 nM for the second. The first is the more potent here.

Compared with `O=S(=O)(N[C@H]1CCC[C@@H](n2cnnc2)C1)c1cc(-c2cccn3ccnc23)cc(C(F)(F)F)c1` [Compound 3Aau, 3-imidazo[1,2-a]pyridin-8-yl-N-[(1S,3R)-3-(4H-1,2,4-triazol-4-yl)cyclohexyl]-5-(trifluoromethyl)benzenesulfonamide], `O=S(=O)(N[C@H]1CCC[C@@H](n2cnnc2)C1)c1cc(-c2cccc3ccccc23)cc(C(F)(F)F)c1` [Compound 3Ao, 3-(1-naphthyl)-N-[(1S,3R)-3-(4H-1,2,4-triazol-4-yl)cyclohexyl]-5-(trifluoromethyl)benzenesulfonamide] is 11-fold higher in IC50: 1.4 nM for the first, 15 nM for the second. The first is the more potent here.

`COc1ccc(-c2cc(C(F)(F)F)cc(S(=O)(=O)N[C@H]3CCC[C@@H](n4cnnc4)C3)c2)cn1` [Compound 3Af, 3-(6-methoxypyridin-3-yl)-N-[(1S,3R)-3-(4H-1,2,4-triazol-4-yl)cyclohexyl]-5-(trifluoromethyl)benzenesulfonamide] and `O=S(=O)(N[C@H]1CCC[C@@H](n2cnnc2)C1)c1ccc(-c2ccc(OCC(F)(F)F)nc2)cc1F` [Compound 2Ih, 2-fluoro-N-[(1S,3R)-3-(4H-1,2,4-triazol-4-yl)cyclohexyl]-4-[6-(2,2,2-trifluoroethoxy)pyridin-3-yl]benzenesulfonamide] are within 1.5-fold of each other in IC50: 4.2 nM for the first, 4 nM for the second.

First: CCc1cc(OCCCC(F)(F)F)ccc1S(=O)(=O)N[C@H]1CCC[C@@H](n2cnnc2)C1 [Compound 2Abi, 2-ethyl-N-[(1S,3R)-3-(4H-1,2,4-triazol-4-yl)cyclohexyl]-4-(4,4,4-trifluorobutoxy)benzenesulfonamide]
Second: CCCCOc1ccc(S(=O)(=O)N[C@H]2CCC[C@@H](n3cnnc3)C2)cc1 [Compound 2Mw, 4-butoxy-N-[(1S,3R)-3-(4H-1,2,4-triazol-4-yl)cyclohexyl]benzenesulfonamide]
The IC50 of the first is 3.1-fold lower: 2.7 nM for the first, 8.3 nM for the second.

Going from `CCCCOc1cc(F)c(S(=O)(=O)N[C@H]2CCC[C@@H](n3cnnc3C)C2)cc1F` [Compound 2Nae, 4-butoxy-2,5-difluoro-N-[(1S,3R)-3-(3-methyl-4H-1,2,4-triazol-4-yl)cyclohexyl]benzenesulfonamide] to `CCc1cc(-c2cccnc2O)ccc1S(=O)(=O)N[C@H]1CCC[C@@H](n2cnnc2)C1` [Compound 2Aag, 2-ethyl-4-(2-hydroxypyridin-3-yl)-N-[(1S,3R)-3-(4H-1,2,4-triazol-4-yl)cyclohexyl]benzenesulfonamide], the IC50 rises from 5.4 nM to 167 nM (31-fold). The first is the more potent here.

Compared with `CC(C)Oc1ccc(S(=O)(=O)N[C@H]2CCC[C@@H](n3cnnc3)C2)cc1` [Compound 2Mz, 4-isopropoxy-N-[(1S,3R)-3-(4H-1,2,4-triazol-4-yl)cyclohexyl]benzenesulfonamide], `CC(C)(C)c1cccc(S(=O)(=O)N[C@H]2CCC[C@@H](n3cnnc3)C2)c1` [Compound 2Mf, 3-tert-butyl-N-[(1S,3R)-3-(4H-1,2,4-triazol-4-yl)cyclohexyl]benzenesulfonamide] is 6.3-fold higher in IC50: 25 nM for the first, 157 nM for the second.
